Paper PMC9460261, “Need for a Standardized Translational Drug Development Platform: Lessons Learned from the Repurposing of Drugs for COVID-19” (Microorganisms, 2022)
Where a name gives a salt, the structure may show the parent alone. Read-outs that look alike come from different tables or passages of the source.

What was measured:
[1] = test system: SARS-CoV-2; assay type: in vivo, Syrian hamster; conditions: doses, frequency, duration as in Table 1
[2] = test system: SARS-CoV-2 in Vero cells; conditions: for IC50: * one replicate only
[3] = test system: SARS-CoV-2 in Calu-3 cells
[4] = test system: SARS-CoV-2; conditions: cited from earlier work; for EC50: read-out: SARS-CoV-2 EC50
[5] = Population PK model from satellite PK studies in hamster
[6] = test system: SARS-CoV-2 in Vero cells; experiment: microbe, parasite or virus in culture; conditions: Severe acute respiratory syndrome coronavirus 2, Vero
[7] = test system: SARS-CoV-2 in Calu-3 cells; experiment: microbe, parasite or virus in culture; conditions: Severe acute respiratory syndrome coronavirus 2, Calu-3, read-out: Calu-3 cells Average IC50
[8] = female, LGV Golden Syrian, hamster, in vivo
[9] = in vitro; conditions: African green monkey, Selectivity Index (Vero cells)
[10] = hamster of the study's median weight (80-131 g)
[11] = read-out: VERO cells Average IC50, With Pgp pump inhibitor, 2 μM CP-100356, * one replicate only
[12] = read-out: VERO cells Average IC50, Without Pgp pump inhibitor, * one replicate only

## ivermectin
[1]
  Activity in SARS-CoV-2 Hamster Model: No
[2]
  Activity In Vitro; Potency EC50 or IC50 < 10 µM; Vero Cells: Yes (Potency EC50 or IC50 < 10 µM)
[2]; read-out: VERO cells Average IC50, With Pgp pump inhibitor, 2 μM CP-100356
  IC50: 1100 nM
[2]; read-out: VERO cells Average IC50, Without Pgp pump inhibitor
  IC50: 4300 nM
[3]
  Activity In Vitro; Potency EC50 or IC50 < 10 µM; Calu-3 Cells: Yes (Potency EC50 or IC50 < 10 µM)
[3]; read-out: Calu-3 cells Average IC50, * one replicate only
  IC50: 8.9 µM
[4]; Vero-hSLAM cells, read-out: IC50, medium
  IC50: 2800 nM
[4]; host cell Vero E6, ref 22
  EC50: 1700 nM
[4]; host cell Vero E6, ref 38
  EC50: 2300 nM
[4]; host cell not given
  EC50: 2000 nM
[5]; compared to PO administration
  Effect of SC administration on F: 0.656 (15.7)
  Effect of SC administration on KA: 2.05 (50.0)
  Effect of SC administration on MTT: -0.85 (5.61)
[5]; hamster 120 g
  MTT, mean transit time, population estimate (%RSE): 0.478 (7.42) h
[5]; [10]
  CL/F, elimination clearance, population estimate (%RSE): 13.3 (0.160) mL/h
  KA, absorption rate constant, population estimate (%RSE): 0.531 (8.35) h-1

## NCCC(Oc1ccc(C(F)(F)F)cc1)c1ccccc1 (stereo not shown) [norfluoxetine]
[5]; hamster 97 g
  FFP, fraction undergoing first-pass metabolism, population estimate (%RSE): 0.323 (11)
[5]; [10]
  CL/F, elimination clearance, population estimate (%RSE): 93.3 (6.3) mL/h
  VC/F, central volume of distribution, population estimate (%RSE): 2740 (5.7) mL

## CN(C)C(=O)COC(=O)Cc1ccc(OC(=O)c2ccc(NC(=N)N)cc2)cc1 [Camostat mesylate, camostat mesylate]
[1]
  Activity in SARS-CoV-2 Hamster Model: No
[2]
  Activity In Vitro; Potency EC50 or IC50 < 10 µM; Vero Cells: No (Potency EC50 or IC50 < 10 µM)
[3]
  Activity In Vitro; Potency EC50 or IC50 < 10 µM; Calu-3 Cells: Yes (Potency EC50 or IC50 < 10 µM)
[4]; host cell Calu-3
  EC50: 83 nM
[6]; [11]
  IC50: > 50 µM
[6]; [12]
  IC50: > 50 µM
[7]
  IC50: 3 µM

## Cc1c(-c2ccc(-c3ccccc3F)cc2)nc2ccc(F)cc2c1C(=O)O [Brequinar, brequinar]
[4]; host cell A549-ACE
  EC50: 50 nM
[4]; host cell Caco-2
  EC50: > 50000 nM
[4]; host cell Huh7.5
  EC50: 500 nM
[4]; host cell Vero E6, ref 51
  EC50: 120 nM

## CC(=O)Oc1ccccc1C(=O)Nc1ncc([N+](=O)[O-])s1 [Nitazoxanide, nitazoxanide]
[1]
  Activity in SARS-CoV-2 Hamster Model: No
[8]
  CL/F, elimination clearance, population estimate (%RSE): 626 (11.9) mL/h
  VC/F, central volume of distribution, population estimate (%RSE): 188 (38.6) mL
[9]; With Pgp pump inhibitor
  selectivity ratio: > 14.7
[9]; Without Pgp pump inhibitor
  selectivity ratio: > 7.9
[6]; [11]
  IC50: 3.4 µM
[6]; [12]
  IC50: 6.3 µM
[7]
  IC50: 13.6 µM

## C[C@@]1(F)[C@H](O)[C@@H](CO)O[C@H]1n1ccc(=O)[nH]c1=O [GS-331007]
[5]; [10]
  CL/F, elimination clearance, population estimate (%RSE): 390 (17.4) mL/h
  VC/F, central volume of distribution, population estimate (%RSE): 2750 (17.0) mL

## CC(C)c1nc(CN(C)C(=O)N[C@H](C(=O)N[C@@H](Cc2ccccc2)C[C@H](O)[C@H](Cc2ccccc2)NC(=O)OCc2cncs2)C(C)C)cs1 [Ritonavir, ritonavir]
[4]; host cell Vero E6, ref 31
  EC50: > 100000 nM
[4]; host cell Vero E6, ref 32
  EC50: > 50000 nM
[4]; host cell VeroE6/TMPRSS2
  EC50: 8600 nM

## OC(c1cc(C(F)(F)F)nc2c(C(F)(F)F)cccc12)C1CCCCN1 (stereo not shown) [Mefloquine, mefloquine]
[2]
  Activity In Vitro; Potency EC50 or IC50 < 10 µM; Vero Cells: Yes (Potency EC50 or IC50 < 10 µM)
[3]
  Activity In Vitro; Potency EC50 or IC50 < 10 µM; Calu-3 Cells: No (Potency EC50 or IC50 < 10 µM)
[9]; With Pgp pump inhibitor
  selectivity ratio: 6.2
[9]; Without Pgp pump inhibitor
  selectivity ratio: 3.6
[6]; [11]
  IC50: 2.8 µM
[6]; [12]
  IC50: 5.7 µM
[7]
  IC50: 13.2 µM

## CC(=O)CCCCn1c(=O)c2c(ncn2C)n(C)c1=O [Pentoxyfilline, pentoxyfilline]
[2]
  Activity In Vitro; Potency EC50 or IC50 < 10 µM; Vero Cells: No (Potency EC50 or IC50 < 10 µM)
[3]
  Activity In Vitro; Potency EC50 or IC50 < 10 µM; Calu-3 Cells: No (Potency EC50 or IC50 < 10 µM)
[6]; [11]
  IC50: > 50 µM
[6]; [12]
  IC50: > 50 µM
[7]
  IC50: > 50 µM
